In ChEMBL document CHEMBL5518181, “Studies of antibacterial activity (in vitro and in vivo) and mode of action for des-acyl tridecaptins (DATs)” (Eur J Med Chem, 2024):
Converted amounts (≈) assume the structure as drawn.

What was measured:
Klebsiella pneumoniae = experiment: Antibacterial activity against wild-type Klebsiella pneumoniae ATCC 13883 assessed as inhibition of bacterial growth incubated for 18 hrs; format: functional; settings: read-out: MIC100
Escherichia coli = experiment: Antibacterial activity against wild-type Escherichia coli ATCC 25922 assessed as inhibition of bacterial growth incubated for 18 hrs; format: functional; settings: read-out: MIC100
[1] = Cytotoxicity against human HepG2 cells incubated for 40 hrs by celltiter-glo luminescent cell viability assay; format: toxicity, cell-based
[2] = Hemolytic activity in human red blood cells at 400 ug/ml incubated for 45 mins by spectrophotometric analysis relative to control; format: toxicity, cell-based, Erythrocyte; settings: red blood cells (erythrocytes), at 400 µg/mL, read-out: Activity

MIC (Klebsiella pneumoniae)	MIC (Escherichia coli)	Compound	IC50 at 40 h [1]	hemolysis at 0.75 h, 400 ug/ml [2]
64 µg/mL (≈ 48.5 µM)	64 µg/mL (≈ 48.5 µM)	CC[C@H](C)[C@@H](NC(=O)[C@@H](NC(=O)[C@H](CCC(=O)O)NC(=O)[C@H](C)NC(=O)[C@@H](CCN)NC(=O)[C@H](CCN)NC(=O)[C@H](CO)NC(=O)[C@@H](Cc1c[nH]c2ccccc12)NC(=O)[C@@H](CO)NC(=O)CNC(=O)[C@@H](CCN)NC(=O)[C@H](N)C(C)C)C(C)C)C(=O)N[C@@H](C)C(=O)O	> 170 µg/mL	2.5%
16 µg/mL (≈ 11.4 µM)	32 µg/mL (≈ 22.7 µM)	CC[C@H](C)[C@H](NC(=O)[C@H](CCC(=O)O)NC(=O)[C@H](Cc1ccccc1)NC(=O)[C@@H](CCN)NC(=O)[C@H](CCN)NC(=O)[C@H](CO)NC(=O)[C@@H](Cc1c[nH]c2ccccc12)NC(=O)[C@@H](CO)NC(=O)CNC(=O)[C@@H](CCN)NC(=O)[C@H](N)C(C)C)C(=O)N[C@@H](C(=O)N[C@@H](C)C(=O)O)[C@@H](C)CC	> 60 µg/mL	70.6%
32 µg/mL (≈ 22.1 µM)	16 µg/mL (≈ 11 µM)	CC[C@H](C)[C@@H](NC(=O)[C@@H](NC(=O)[C@H](CCC(=O)O)NC(=O)[C@H](Cc1ccccc1)NC(=O)[C@@H](CCN)NC(=O)[C@H](CCN)NC(=O)[C@H](CO)NC(=O)[C@@H](Cc1c[nH]c2ccccc12)NC(=O)[C@@H](C)NC(=O)CNC(=O)[C@@H](CCN)NC(=O)[C@H](NC(=O)[C@H](C)N)C(C)C)C(C)C)C(=O)N[C@@H](C)C(=O)O	139 µg/mL (≈ 95.9 µM)	0%
> 64 µg/mL	> 64 µg/mL	CC[C@H](C)[C@@H](NC(=O)[C@@H](NC(=O)[C@H](CCC(=O)O)NC(=O)[C@H](C)NC(=O)[C@@H](CCN)NC(=O)[C@H](CCN)NC(=O)[C@H](CO)NC(=O)[C@@H](Cc1c[nH]c2ccccc12)NC(=O)[C@@H](CO)NC(=O)CNC(=O)[C@@H](CCN)NC(=O)[C@H](NC(=O)[C@H](C)N)C(C)C)C(C)C)C(=O)N[C@@H](C)C(=O)O	> 170 µg/mL	0%
32 µg/mL (≈ 23.2 µM)	32 µg/mL (≈ 23.2 µM)	CC[C@H](C)[C@@H](NC(=O)[C@@H](NC(=O)[C@H](CCC(=O)O)NC(=O)[C@H](Cc1ccccc1)NC(=O)[C@@H](CCN)NC(=O)[C@H](CCN)NC(=O)[C@H](CO)NC(=O)[C@@H](Cc1c[nH]c2ccccc12)NC(=O)[C@@H](CO)NC(=O)CNC(=O)[C@@H](CN)NC(=O)[C@H](N)C(C)C)C(C)C)C(=O)N[C@@H](C)C(=O)O	125 µg/mL (≈ 90.5 µM)	6.3%
16 µg/mL (≈ 11.4 µM)	32 µg/mL (≈ 22.7 µM)	CC[C@H](C)[C@@H](NC(=O)[C@@H](NC(=O)[C@H](CCC(=O)O)NC(=O)[C@H](Cc1ccccc1)NC(=O)[C@@H](CCN)NC(=O)[C@H](CCN)NC(=O)[C@H](CO)NC(=O)[C@@H](Cc1c[nH]c2ccccc12)NC(=O)[C@@H](CO)NC(=O)CNC(=O)[C@@H](CCN)NC(=O)[C@H](N)C(C)(C)C)C(C)C)C(=O)N[C@@H](C)C(=O)O	33 µg/mL (≈ 23.4 µM)	13%
> 64 µg/mL	> 64 µg/mL	CC[C@H](C)[C@@H](NC(=O)[C@@H](NC(=O)[C@H](CO)NC(=O)[C@H](Cc1ccccc1)NC(=O)[C@@H](CCN)NC(=O)[C@H](CCN)NC(=O)[C@H](CO)NC(=O)[C@@H](Cc1c[nH]c2ccccc12)NC(=O)[C@@H](CO)NC(=O)CNC(=O)[C@@H](CCN)NC(=O)[C@H](N)C(C)C)C(C)C)C(=O)N[C@@H](C)C(=O)O [listing 1 of 2 here]		
64 µg/mL (≈ 47.3 µM)	> 64 µg/mL	CC(C)[C@H](NC(=O)[C@H](CCC(=O)O)NC(=O)[C@H](Cc1ccccc1)NC(=O)[C@@H](CCN)NC(=O)[C@H](CCN)NC(=O)[C@H](CO)NC(=O)[C@@H](Cc1c[nH]c2ccccc12)NC(=O)[C@@H](CO)NC(=O)CNC(=O)[C@@H](CCN)NC(=O)[C@H](N)C(C)C)C(=O)N[C@H](C)C(=O)N[C@@H](C)C(=O)O	> 170 µg/mL	4.3%
> 64 µg/mL	> 64 µg/mL	CC[C@H](C)[C@@H](NC(=O)[C@@H](NC(=O)[C@H](CCC(=O)O)NC(=O)[C@H](Cc1ccccc1)NC(=O)[C@@H](CCN)NC(=O)[C@H](CN)NC(=O)[C@H](CO)NC(=O)[C@@H](Cc1c[nH]c2ccccc12)NC(=O)[C@@H](CO)NC(=O)CNC(=O)[C@@H](CCN)NC(=O)[C@H](NC(=O)[C@H](C)N)C(C)C)C(C)C)C(=O)N[C@@H](C)C(=O)O	> 170 µg/mL	0%
2 µg/mL (≈ 1.36 µM)	4 µg/mL (≈ 2.72 µM)	CC[C@H](C)[C@@H](NC(=O)[C@@H](NC(=O)[C@H](CCC(=O)O)NC(=O)[C@H](CC1CCCCC1)NC(=O)[C@@H](CCN)NC(=O)[C@H](CCN)NC(=O)[C@H](CO)NC(=O)[C@@H](Cc1c[nH]c2ccccc12)NC(=O)[C@@H](CO)NC(=O)CNC(=O)[C@@H](CCN)NC(=O)[C@H](NC(=O)[C@H](C)N)C(C)C)C(C)C)C(=O)N[C@@H](C)C(=O)O [listing 1 of 2 here]		
64 µg/mL (≈ 44.5 µM)	32 µg/mL (≈ 22.3 µM)	CC[C@H](C)[C@@H](NC(=O)[C@@H](NC(=O)[C@H](CCC(=O)O)NC(=O)[C@H](Cc1ccccc1)NC(=O)[C@@H](CCN)NC(=O)[C@H](CCN)NC(=O)[C@H](CO)NC(=O)[C@@H](Cc1c[nH]c2ccccc12)NC(=O)[C@@H](CO)NC(=O)[C@H](CCN)NC(=O)[C@@H](CCN)NC(=O)[C@H](N)C(C)C)C(C)C)C(=O)N[C@@H](C)C(=O)O	> 170 µg/mL	0.3%
32 µg/mL (≈ 20.8 µM)	16 µg/mL (≈ 10.4 µM)	CC[C@H](C)[C@@H](NC(=O)[C@@H](NC(=O)[C@H](CCC(=O)O)NC(=O)[C@H](Cc1ccccc1)NC(=O)[C@@H](CCN)NC(=O)[C@H](CCN)NC(=O)[C@H](CO)NC(=O)[C@@H](Cc1c[nH]c2ccccc12)NC(=O)[C@@H](CO)NC(=O)[C@H](CCCCN)NC(=O)[C@@H](CCN)NC(=O)[C@H](NC(=O)[C@H](C)N)C(C)C)C(C)C)C(=O)N[C@@H](C)C(=O)O	> 170 µg/mL	0.5%
> 64 µg/mL	> 64 µg/mL	CC[C@H](C)[C@@H](NC(=O)[C@@H](NC(=O)[C@H](CCC(=O)O)NC(=O)[C@H](Cc1ccccc1)NC(=O)[C@@H](CCN)NC(=O)[C@H](CCN)NC(=O)[C@H](CO)NC(=O)[C@@H](C)NC(=O)[C@@H](CO)NC(=O)CNC(=O)[C@@H](CCN)NC(=O)[C@H](NC(=O)[C@H](C)N)C(C)C)C(C)C)C(=O)N[C@@H](C)C(=O)O	> 170 µg/mL	0%
64 µg/mL (≈ 45.9 µM)	64 µg/mL (≈ 45.9 µM)	CC(C)C[C@@H](NC(=O)[C@@H](NC(=O)[C@H](CCC(=O)O)NC(=O)[C@H](Cc1ccccc1)NC(=O)[C@@H](CCN)NC(=O)[C@H](CCN)NC(=O)[C@H](CO)NC(=O)[C@@H](Cc1c[nH]c2ccccc12)NC(=O)[C@@H](CO)NC(=O)CNC(=O)[C@@H](CCN)NC(=O)[C@H](N)C(C)C)C(C)C)C(=O)N[C@@H](C)C(=O)O	161 µg/mL (≈ 115 µM)	45.9%
8 µg/mL (≈ 5.58 µM)	16 µg/mL (≈ 11.2 µM)	CC[C@H](C)[C@@H](NC(=O)[C@@H](NC(=O)[C@H](CCC(=O)O)NC(=O)[C@H](Cc1c[nH]c2ccccc12)NC(=O)[C@@H](CCN)NC(=O)[C@H](CCN)NC(=O)[C@H](CO)NC(=O)[C@@H](Cc1c[nH]c2ccccc12)NC(=O)[C@@H](CO)NC(=O)CNC(=O)[C@@H](CCN)NC(=O)[C@H](N)C(C)C)C(C)C)C(=O)N[C@@H](C)C(=O)O	> 170 µg/mL	43.7%
		CC[C@H](C)[C@@H](NC(=O)[C@@H](NC(=O)[C@H](CO)NC(=O)[C@H](Cc1ccccc1)NC(=O)[C@@H](CCN)NC(=O)[C@H](CCN)NC(=O)[C@H](CO)NC(=O)[C@@H](Cc1c[nH]c2ccccc12)NC(=O)[C@@H](CO)NC(=O)CNC(=O)[C@@H](CCN)NC(=O)[C@H](N)C(C)C)C(C)C)C(=O)N[C@@H](C)C(=O)O [listing 2 of 2 here]	> 170 µg/mL	0.4%
2 µg/mL (≈ 1.32 µM)	2 µg/mL (≈ 1.32 µM)	CC[C@H](C)[C@@H](NC(=O)[C@H](CC1CCCCC1)NC(=O)[C@H](CCC(=O)O)NC(=O)[C@H](Cc1ccccc1)NC(=O)[C@@H](CCN)NC(=O)[C@H](CCN)NC(=O)[C@H](CO)NC(=O)[C@@H](Cc1c[nH]c2ccccc12)NC(=O)[C@@H](CO)NC(=O)CNC(=O)[C@@H](CCN)NC(=O)[C@H](NC(=O)[C@H](C)N)C(C)C)C(=O)N[C@@H](C)C(=O)O [listing 1 of 2 here]		
64 µg/mL (≈ 46.9 µM)	> 64 µg/mL	CC[C@H](C)[C@@H](NC(=O)[C@@H](NC(=O)[C@H](CCC(=O)O)NC(=O)[C@H](Cc1ccccc1)NC(=O)[C@@H](CCN)NC(=O)[C@H](C)NC(=O)[C@H](CO)NC(=O)[C@@H](Cc1c[nH]c2ccccc12)NC(=O)[C@@H](CO)NC(=O)CNC(=O)[C@@H](CCN)NC(=O)[C@H](N)C(C)C)C(C)C)C(=O)N[C@@H](C)C(=O)O	126 µg/mL (≈ 92.3 µM)	5.9%
		CC[C@H](C)[C@@H](NC(=O)[C@H](CC1CCCCC1)NC(=O)[C@H](CCC(=O)O)NC(=O)[C@H](Cc1ccccc1)NC(=O)[C@@H](CCN)NC(=O)[C@H](CCN)NC(=O)[C@H](CO)NC(=O)[C@@H](Cc1c[nH]c2ccccc12)NC(=O)[C@@H](CO)NC(=O)CNC(=O)[C@@H](CCN)NC(=O)[C@H](NC(=O)[C@H](C)N)C(C)C)C(=O)N[C@@H](C)C(=O)O [listing 2 of 2 here]	9 µg/mL (≈ 5.92 µM)	59%
		CC[C@H](C)[C@@H](NC(=O)[C@@H](NC(=O)[C@H](CCC(=O)O)NC(=O)[C@H](CC1CCCCC1)NC(=O)[C@@H](CCN)NC(=O)[C@H](CCN)NC(=O)[C@H](CO)NC(=O)[C@@H](Cc1c[nH]c2ccccc12)NC(=O)[C@@H](CO)NC(=O)CNC(=O)[C@@H](CCN)NC(=O)[C@H](NC(=O)[C@H](C)N)C(C)C)C(C)C)C(=O)N[C@@H](C)C(=O)O [listing 2 of 2 here]	37 µg/mL (≈ 25.1 µM)	
8 µg/mL (≈ 5.74 µM)	32 µg/mL (≈ 22.9 µM)	CC(C)[C@H](NC(=O)[C@H](CCC(=O)O)NC(=O)[C@H](Cc1ccccc1)NC(=O)[C@@H](CCN)NC(=O)[C@H](CCN)NC(=O)[C@H](CO)NC(=O)[C@@H](Cc1c[nH]c2ccccc12)NC(=O)[C@@H](CO)NC(=O)CNC(=O)[C@@H](CCN)NC(=O)[C@H](N)C(C)C)C(=O)N[C@@H](C(=O)N[C@@H](C)C(=O)O)C(C)(C)C		14.4%
